US9296723B2, “NAMPT inhibitors” (AbbVie Inc., priority 2012, dated 2016)

What was measured:
PC3 cells = experiment: NAMPT Cell Proliferation Assay (Cell Titer Glo); assay type: cell-based; conditions: Homo sapiens, PC-3, 120 h, incubated 5 days, cell viability
Summary of the method: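 PC3 cells (500/well, RPMI with 10% heat-inactivated FBS) were exposed to 10-fold compound dilutions from […] for 5 days at 37 °C, 5% CO2. Viability was read with Cell Titer Glo; IC50 from sigmoidal fit of percent inhibition.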

NAMPT [1] = molecular target: T1, NAMPT (Homo sapiens, UniProt P43490); experiment: Time-Resolved Fluorescence Resonance Energy Transfer (TR-FRET) Binding Assay of NAMPT; conditions: 6.8 nM NAMPT, 200 nM probe, equilibrated 3 hours, no substrates
T1 sequence (P43490 whole entry): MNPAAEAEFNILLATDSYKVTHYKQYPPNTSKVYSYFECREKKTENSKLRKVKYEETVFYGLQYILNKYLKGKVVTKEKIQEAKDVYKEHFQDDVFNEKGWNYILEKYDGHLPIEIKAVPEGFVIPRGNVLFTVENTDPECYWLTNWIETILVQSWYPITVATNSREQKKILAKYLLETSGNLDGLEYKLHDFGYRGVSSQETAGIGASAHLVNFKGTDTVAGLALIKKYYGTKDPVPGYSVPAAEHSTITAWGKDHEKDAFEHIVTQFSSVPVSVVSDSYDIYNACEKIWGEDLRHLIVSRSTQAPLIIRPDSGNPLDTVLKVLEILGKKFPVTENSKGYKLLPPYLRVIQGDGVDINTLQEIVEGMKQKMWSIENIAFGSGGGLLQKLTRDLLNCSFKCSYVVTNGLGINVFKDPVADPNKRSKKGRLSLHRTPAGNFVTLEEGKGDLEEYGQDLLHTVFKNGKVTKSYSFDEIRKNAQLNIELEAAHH
Summary of the method: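 Compound was mixed with enzyme, probe and antibody and equilibrated 3 h at room temperature. TR-FRET read at Ex 337 nm, Em 520/495 nm. Ratios were normalized to controls and fitted to a four-parameter logistic equation for IC50.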

NAMPT [2] = molecular target: T1, NAMPT; experiment: TR-FRET Binding Assay of NAMPT with PRPP; conditions: 2 nM NAMPT, 2 nM probe, 200 µM PRPP and 2.5 mM ATP, equilibrated 16 hours
Protocol: Time-Resolved Fluorescence Resonance Energy Transfer (TR-FRET) Binding Assay of NAMPT with PRPP
Compound handling and data processing were identical to the assay in the absence of substrates (above). Final concentrations were 1× assay buffer, 2% DMSO, 2 nM NAMPT, 2 nM probe, 1 nM Tb-anti-His antibody (Invitrogen #PV5895), 200 µM PRPP and 2.5 mM ATP. Reactions were equilibrated for 16 hours prior to measurement to allow for potential enzymatic modification of test compounds.

## CN1CCN(CCC(=O)N2CCC(Oc3ccc(NC(=O)N4CC(c5cccnc5)C4)cc3)CC2)CC1 [Example 38, N-[4-({1-[3-(4-methylpiperazin-1-yl)propanoyl]piperidin-4-yl}oxy)phenyl]-3-(pyridin-3-yl)azetidine-1-carboxamide]
PC3 cells
  IC50: 83.6 nM
NAMPT [1]
  IC50: 34.3 nM
NAMPT [2]
  IC50: 0.201 nM

## CC(=O)N1CCC(C(=O)N2CCC(Oc3ccc(NC(=O)N4CC(c5cccnc5)C4)cc3)CC2)CC1 [Example 34, N-[4-({1-[(1-acetylpiperidin-4-yl)carbonyl]piperidin-4-yl}oxy)phenyl]-3-(pyridin-3-yl)azetidine-1-carboxamide]
PC3 cells
  IC50: 62.4 nM
NAMPT [1]
  IC50: 50.7 nM
NAMPT [2]
  IC50: 0.264 nM

## O=C(Nc1ccc(C2CCN(C(=O)c3ccco3)CC2)cc1)N1CC(c2cccnc2)C1 [Example 190, N-{4-[1-(furan-2-ylcarbonyl)piperidin-4-yl]phenyl}-3-(pyridin-3-yl)azetidine-1-carboxamide]
PC3 cells
  IC50: 5.83 nM
NAMPT [1]
  IC50: 2 nM
NAMPT [2]
  IC50: 0.282 nM

## CCCC(=O)N1CC(c2ccc(NC(=O)N3CC(c4cccnc4)C3)cc2)C1 [Example 111, N-[4-(1-butanoylazetidin-3-yl)phenyl]-3-(pyridin-3-yl)azetidine-1-carboxamide]
PC3 cells
  IC50: 29.2 nM
NAMPT [1]
  IC50: 53.9 nM
NAMPT [2]
  IC50: 0.292 nM

## CC(C)(O)C(=O)N1CCC(c2ccc(NC(=O)N3CC(c4cccnc4)C3)cc2)C1 (centres unmarked) [Example 70, N-{4-[1-(2-hydroxy-2-methylpropanoyl)pyrrolidin-3-yl]phenyl}-3-(pyridin-3-yl)azetidine-1-carboxamide]
PC3 cells
  IC50: 73.1 nM
NAMPT [1]
  IC50: 92.2 nM
NAMPT [2]
  IC50: 0.421 nM

## CC1CC1C(=O)N1CCC(c2ccc(NC(=O)N3CC(c4cccnc4)C3)cc2)CC1 (centres unmarked) [Example 164, N-(4-{1-[(2-methylcyclopropyl)carbonyl]piperidin-4-yl}phenyl)-3-(pyridin-3-yl)azetidine-1-carboxamide]
PC3 cells
  IC50: 25.9 nM
NAMPT [1]
  IC50: 15.9 nM
NAMPT [2]
  IC50: 0.313 nM

## CCCC(=O)N1CC(Oc2ccc(NC(=O)N3CC(c4cccnc4)C3)cc2)C1 [Example 129, N-{4-[(1-butanoylazetidin-3-yl)oxy]phenyl}-3-(pyridin-3-yl)azetidine-1-carboxamide]
PC3 cells
  IC50: 11.3 nM
NAMPT [1]
  IC50: 40 nM
NAMPT [2]
  IC50: 0.401 nM

## O=C(Nc1ccc(OC2CN(C(=O)c3ccsc3)C2)cc1)N1CC(c2cccnc2)C1 [Example 146, 3-(pyridin-3-yl)-N-(4-{[1-(thiophen-3-ylcarbonyl)azetidin-3-yl]oxy}phenyl)azetidine-1-carboxamide]
PC3 cells
  IC50: 9.07 nM
NAMPT [1]
  IC50: 15.1 nM
NAMPT [2]
  IC50: 0.27 nM

## O=C(CC1C[C@@H]2CC[C@H]1C2)N1CCC(c2ccc(NC(=O)N3CC(c4cccnc4)C3)cc2)C1 (stereo partly drawn) [Example 260, N-(4-{1-[(1S,4R)-bicyclo[2.2.1]hept-2-ylacetyl]pyrrolidin-3-yl}phenyl)-3-(pyridin-3-yl)azetidine-1-carboxamide]
PC3 cells
  IC50: 94.9 nM
NAMPT [1]
  IC50: 38.4 nM
NAMPT [2]
  IC50: 0.302 nM

## O=C(Nc1ccc(C2CCN(C(=O)c3ccccc3)C2)cc1)N1CC(c2cccnc2)C1 (centres unmarked) [Example 71, N-[4-(1-benzoylpyrrolidin-3-yl)phenyl]-3-(pyridin-3-yl)azetidine-1-carboxamide]
PC3 cells
  IC50: 10.7 nM
NAMPT [1]
  IC50: 20.1 nM
NAMPT [2]
  IC50: 0.184 nM

## CCC(=O)N1CC(Oc2ccc(NC(=O)N3CC(c4cccnc4)C3)cc2)C1 [Example 130, N-{4-[(1-propanoylazetidin-3-yl)oxy]phenyl}-3-(pyridin-3-yl)azetidine-1-carboxamide]
PC3 cells
  IC50: 78.7 nM
NAMPT [1]
  IC50: 84.7 nM
NAMPT [2]
  IC50: 0.559 nM

## CC(C)CN1CC(c2ccc(NC(=O)N3CC(c4cccnc4)C3)cc2)C1 [Example 251, N-{4-[1-(2-methylpropyl)azetidin-3-yl]phenyl}-3-(pyridin-3-yl)azetidine-1-carboxamide]
PC3 cells
  IC50: 212 nM
NAMPT [1]
  IC50: 382 nM
NAMPT [2]
  IC50: 0.365 nM

## O=C(CCC(F)(F)F)N1CC=C(c2ccc(NC(=O)N3CC(c4cccnc4)C3)cc2)CC1 [Example 19, 3-(pyridin-3-yl)-N-{4-[1-(4,4,4-trifluorobutanoyl)-1,2,3,6-tetrahydropyridin-4-yl]phenyl}azetidine-1-carboxamide]
PC3 cells
  IC50: 192 nM
NAMPT [1]
  IC50: 153 nM
NAMPT [2]
  IC50: 0.86 nM

## CCCCC(=O)N1CCC(c2ccc(NC(=O)N3CC(c4cccnc4)C3)cc2)CC1 [Example 163, N-[4-(1-pentanoylpiperidin-4-yl)phenyl]-3-(pyridin-3-yl)azetidine-1-carboxamide]
PC3 cells
  IC50: 34.4 nM
NAMPT [1]
  IC50: 7.23 nM
NAMPT [2]
  IC50: 0.295 nM

## O=C(CC1CC1)N1CC(c2ccc(NC(=O)N3CC(c4cccnc4)C3)cc2)C1 [Example 105, N-{4-[1-(cyclopropylacetyl)azetidin-3-yl]phenyl}-3-(pyridin-3-yl)azetidine-1-carboxamide]
PC3 cells
  IC50: 60.9 nM
NAMPT [1]
  IC50: 68.3 nM
NAMPT [2]
  IC50: 0.208 nM

## O=C(Nc1ccc(C2CCN(C(=O)c3ccoc3)CC2)cc1)N1CC(c2cccnc2)C1 [Example 182, N-{4-[1-(furan-3-ylcarbonyl)piperidin-4-yl]phenyl}-3-(pyridin-3-yl)azetidine-1-carboxamide]
PC3 cells
  IC50: 6.95 nM
NAMPT [1]
  IC50: 3.68 nM
NAMPT [2]
  IC50: 0.219 nM

## CN1CCN(CC(=O)N2CC(Oc3ccc(NC(=O)N4CC(c5cccnc5)C4)cc3)C2)CC1 [Example 149, N-[4-({1-[(4-methylpiperazin-1-yl)acetyl]azetidin-3-yl}oxy)phenyl]-3-(pyridin-3-yl)azetidine-1-carboxamide]
PC3 cells
  IC50: 76.5 nM
NAMPT [1]
  IC50: 22.1 nM
NAMPT [2]
  IC50: 0.219 nM

## CC(C)(C)OC(=O)N1CC(c2ccc(NC(=O)N3CC(c4cccnc4)C3)cc2)C1 [Example 62, tert-butyl 3-[4-({[3-(pyridin-3-yl)azetidin-1-yl]carbonyl}amino)phenyl]azetidine-1-carboxylate]
PC3 cells
  IC50: 69.7 nM
NAMPT [1]
  IC50: 91.5 nM
NAMPT [2]
  IC50: 0.467 nM

## O=C(Nc1ccc(O[C@H]2CCN(C(=O)[C@@H]3CCCO3)C2)cc1)N1CC(c2cccnc2)C1 [Example 90, 3-(pyridin-3-yl)-N-[4-({(3S)-1-[(2S)-tetrahydrofuran-2-ylcarbonyl]pyrrolidin-3-yl}oxy)phenyl]azetidine-1-carboxamide]
PC3 cells
  IC50: 686 nM
NAMPT [1]
  IC50: 404 nM
NAMPT [2]
  IC50: 0.196 nM

## CCCCC(=O)N1CC(c2ccc(NC(=O)N3CC(c4cccnc4)C3)cc2)C1 [Example 198, N-[4-(1-pentanoylazetidin-3-yl)phenyl]-3-(pyridin-3-yl)azetidine-1-carboxamide]
PC3 cells
  IC50: 47.6 nM
NAMPT [1]
  IC50: 64.2 nM
NAMPT [2]
  IC50: 0.341 nM

## O=C1CC[C@@H](C(=O)N2CC[C@@H](Oc3ccc(NC(=O)N4CC(c5cccnc5)C4)cc3)C2)N1 [Example 313, N-(4-{[(3R)-1-(5-oxo-L-prolyl)pyrrolidin-3-yl]oxy}phenyl)-3-(pyridin-3-yl)azetidine-1-carboxamide]
PC3 cells
  IC50: 4590 nM
NAMPT [1]
  IC50: 369 nM
NAMPT [2]
  IC50: 0.187 nM

## CC(C)(C)C(=O)N1CC(c2ccc(NC(=O)N3CC(c4cccnc4)C3)cc2)C1 [Example 206, N-{4-[1-(2,2-dimethylpropanoyl)azetidin-3-yl]phenyl}-3-(pyridin-3-yl)azetidine-1-carboxamide]
PC3 cells
  IC50: 63.4 nM
NAMPT [1]
  IC50: 49.1 nM
NAMPT [2]
  IC50: 0.26 nM

## O=C(CN1CCOCC1)N1CC(Oc2ccc(NC(=O)N3CC(c4cccnc4)C3)cc2)C1 [Example 143, N-(4-{[1-(morpholin-4-ylacetyl)azetidin-3-yl]oxy}phenyl)-3-(pyridin-3-yl)azetidine-1-carboxamide]
PC3 cells
  IC50: 82.2 nM
NAMPT [1]
  IC50: 136 nM
NAMPT [2]
  IC50: 0.763 nM

## O=C(Nc1ccc(OC2CCN(C(=O)[C@@H]3CCCO3)CC2)cc1)N1CC(c2cccnc2)C1 [Example 31, 3-(pyridin-3-yl)-N-[4-({1-[(2S)-tetrahydrofuran-2-ylcarbonyl]piperidin-4-yl}oxy)phenyl]azetidine-1-carboxamide]
PC3 cells
  IC50: 38.9 nM
NAMPT [1]
  IC50: 40.6 nM
NAMPT [2]
  IC50: 0.33 nM

## O=C(CC(F)(F)F)N1CC(c2ccc(NC(=O)N3CC(c4cccnc4)C3)cc2)C1 [Example 108, 3-(pyridin-3-yl)-N-{4-[1-(3,3,3-trifluoropropanoyl)azetidin-3-yl]phenyl}azetidine-1-carboxamide]
PC3 cells
  IC50: 81.5 nM
NAMPT [1]
  IC50: 122 nM
NAMPT [2]
  IC50: 0.411 nM

## CC(C)(C)OC(=O)N1CC[C@H](Oc2ccc(NC(=O)N3CC(c4cccnc4)C3)cc2)C1 [Example 61, tert-butyl (3S)-3-[4-({[3-(pyridin-3-yl)azetidin-1-yl]carbonyl}amino)phenoxy]pyrrolidine-1-carboxylate]
PC3 cells
  IC50: 30.7 nM
NAMPT [1]
  IC50: 20.9 nM
NAMPT [2]
  IC50: 0.31 nM

## CC(=O)N[C@@H](CC(C)C)C(=O)N1CC[C@@H](Oc2ccc(NC(=O)N3CC(c4cccnc4)C3)cc2)C1 [Example 318, N-(4-{[(3R)-1-(N-acetyl-L-leucyl)pyrrolidin-3-yl]oxy}phenyl)-3-(pyridin-3-yl)azetidine-1-carboxamide]
PC3 cells
  IC50: 156 nM
NAMPT [1]
  IC50: 125 nM
NAMPT [2]
  IC50: 0.419 nM

## CC1(C(=O)N2CC(c3ccc(NC(=O)N4CC(c5cccnc5)C4)cc3)C2)CCCCC1 [Example 215, N-(4-{1-[(1-methylcyclohexyl)carbonyl]azetidin-3-yl}phenyl)-3-(pyridin-3-yl)azetidine-1-carboxamide]
NAMPT [1]
  IC50: 27.4 nM
NAMPT [2]
  IC50: 0.294 nM
